Results reported in publication PMC6863598, “Binding of Monovalent and Bivalent Ligands by Transthyretin Causes Different Short- and Long-Distance Conformational Changes” (Journal of Medicinal Chemistry, 2019).

Assays:
TTR [1] = tested on: TTR; design: method as in PMID 28298647; conditions: cited from earlier work
TTR [2] = conditions: simultaneous occupancy of the two binding sites; cited from earlier work
TTR HBP = biological target: T1, TTR HBP (Homo sapiens, UniProt P02766); test: NMR observation of ligand binding to the recombinant TTR halogen binding pocket; conditions: DSS added for reference purposes, Figure S4
T1 construct: hexahistidine (TEV-cleavable) (cleaved yes); made in house; host or cells: E. coli BL21 Star (DE3), peTM11 plasmid
Experimental: NMR spectra were acquired at 310 K with a Bruker AVANCE 700 and 800 MHz NMR spectrometer on a U-^2H, ^13C, ^15N-labeled recombinant TTR samples at concentrations of 50–90 μM in PBS buffer at pH 7.0 and 7.4 in a mixture H2O/D2O 90/10%.
The addition of 4,4-dimethyl-4-silapentane-1-sulfonic acid (DSS) for reference purposes led to the observation that DSS binds to the TTR HBP (see Figure S4).

[3] = biological target: TTR (human wild type TTR isolated from serum) (Homo sapiens, UniProt P02766); test: Surface plasmon resonance (Biacore T200) of tafamidis binding to immobilised biotinylated TTR; conditions: for k2 (off-rate, first binding site) / k4 (off-rate, second binding site): dissociation data fitted to a double exponential
Experimental: Data were fitted to the model described by Scheme 1. The measured fractional response is then given by {[AB + (2ABB)]/Ai} where Ai is the notional concentration of TTR on the surface. Rate parameters were determined from the global fitting of the association data to the binding equilibria as defined by Scheme 1. […]
Surface Plasm on Resonance. Human wild type TTR isolated from serum (Scipac) was biotinylated according to the method of Alhamadsheh et al . 3 using EZ -link sulfo NHS -LC biotin (Thermoscientific) and immobilised in […]
phosphate buffered saline (PBS), 0.05% Tween20 to achieve 3000-4000 response units of biotinylated TTR bound to the SA-chip surface following the manufacturer’s instructions. To block unoccupied sites, biocytin (50 µM) was flowed across the chip (at a flow rate of 50 µl/min, for 1 min). Finally, the chip was washed with Hepes Buffer Saline, pH 7. 4 (+ 0. 05 % Tween20) running buffer until the SPR signal reached a stable background level.
For all procedures, the running buffer was used at a flow rate of […]. The immobilised TTR surface was […]
30 µl/min) and then running buffer alone to monitor the dissociation phase. Between injections sufficient time

[4] = SPR, ± standard deviation, listed as Tafamidis

O=C(O)c1ccccc1Nc1cc(Cl)c(OCCCCCCCOc2c(Cl)cc(Nc3ccccc3C(=O)O)cc2Cl)c(Cl)c1 [mds84]
protection against the proteolytic cleavage of the peptide bond 48–49 (TTR [1]): highest protection | nature of binding by TTR (TTR [2]): pseudo-irreversible

C[Si](C)(C)CCCS(=O)(=O)O [DSS, 4,4-dimethyl-4-silapentane-1-sulfonic acid]
binding to the TTR HBP (TTR HBP): binds

O=C(O)c1ccc2nc(-c3cc(Cl)cc(Cl)c3)oc2c1 [tafamidis]
k3 (on-rate, second binding site) ([3]; SPR global fit, Scheme 1, ± standard deviation): (3.5 ± 1.0) × 10^6 M^–1 s^–1 | k1 (on-rate, first binding site) ([3]; SPR global fit, Scheme 1, ± standard deviation, three independent experiments): (4.5 ± 2.2) × 10^6 M^–1 s^–1 | difference in the observed affinities at the two sites ([3]; SPR, Kd2 vs Kd1): 7 fold | k2 (off-rate, first binding site) ([3]; SPR, ± standard deviation): 0.008 s^–1 | k4 (off-rate, second binding site) ([3]; SPR, ± standard deviation): 0.06 s^–1 | k2 (off-rate, first binding site) [3, 4]: (0.008 ± 0.001) s^–1 | k4 (off-rate, second binding site) [3, 4]: (0.060 ± 0.006) s^–1 | k2 (off-rate measured by SPR) ([3]; first site, Figure 7 legend): 0.008 Hz | k4 (off-rate measured by SPR) ([3]; second site, Figure 7 legend): 0.06 Hz
